Assay results: patent publication US12679878B2, “CRF2 receptor agonists and their use in therapy” (SANOFI, priority 2020, dated 2026)
Starred links: 1 amine or outer side, 2 acyl side, 3 side chain; linkers in the order of their positions; H or OH if unused. Non-standard residues stand in square brackets, D forms with d. Residues, ends and D or L forms follow the SMILES beside them. Groups on a side chain read outwards from the residue. *: point of attachment. C18 diacid = O=C(O)CCCCCCCCCCCCCCCCC(=O)*; γGlu = O=C(O)[C@H](CCC(=O)[*:2])N[*:1]; AEEA = NCCOCCOCC(=O)O; Aib = CC(C)(N)C(=O)O

target: T1, human CRF2α receptor (Homo sapiens, UniProt Q13324); assay: cAMP agonism at human CRF2 α receptor in TeloHEAC cells (Example 7); format: cell-based; settings: cAMP HTRF, TeloHEAC cells stably expressing human CRF2 α, 0% HSA; read-out: EC50 [nM], 0% HSA
T1 construct: expressed in transfected cells; host or cells: TeloHEAC
T1 sequence (Q13324 1-411): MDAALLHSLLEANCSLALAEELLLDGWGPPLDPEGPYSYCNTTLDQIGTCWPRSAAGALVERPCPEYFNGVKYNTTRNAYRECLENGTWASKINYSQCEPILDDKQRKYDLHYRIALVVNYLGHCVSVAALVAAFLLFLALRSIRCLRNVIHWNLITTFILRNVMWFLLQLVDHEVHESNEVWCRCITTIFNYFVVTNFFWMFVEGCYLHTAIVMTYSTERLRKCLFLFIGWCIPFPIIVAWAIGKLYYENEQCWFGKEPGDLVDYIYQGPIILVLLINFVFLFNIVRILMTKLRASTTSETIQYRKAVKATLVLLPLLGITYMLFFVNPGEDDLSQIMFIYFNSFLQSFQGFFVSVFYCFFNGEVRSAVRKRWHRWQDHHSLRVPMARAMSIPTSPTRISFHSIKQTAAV
How it was run: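 HTRF ratio 665/620 nm, read 1 h after lysis reagents, reports cAMP. Cells: thawed stocks, 2000/well, 30 min RT with compound in HBSS, 20 mM HEPES, 0 or 0.1% HSA, 2 mM IBMX. Activity normalised to UCN2 1000 nM = 100%; EC50 from half-maximal activation.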

EC50 [nM]	Compound
25	CC[C@H](C)[C@H](N)C(=O)N[C@H](C(=O)N[C@@H](CC(C)C)C(=O)N[C@@H](CO)C(=O)N[C@@H](CC(C)C)C(=O)N[C@@H](CC(=O)O)C(=O)N[C@H](C(=O)N1CCC[C@H]1C(=O)N[C@H](C(=O)N[C@@H](CCCCN)C(=O)N[C@@H](CC(C)C)C(=O)N[C@@H](CCCCNC(=O)COCCOCCNC(=O)COCCOCCNC(=O)CC[C@H](NC(=O)CCCCCCCCCCCCCCCCC(=O)O)C(=O)O)C(=O)N[C@@H](CCC(N)=O)C(=O)N[C@@H](CCCCN)C(=O)N[C@@H](CC(C)C)C(=O)N[C@@H](CC(C)C)C(=O)N[C@@H](CCCCN)C(=O)N[C@@H](CCC(N)=O)C(=O)N[C@@H](CCC(=O)O)C(=O)N[C@@H](CCCNC(=N)N)C(=O)N[C@@H](CCC(N)=O)C(=O)N[C@@H](CCCCN)C(=O)N[C@@H](CCCCN)C(=O)N[C@@H](CCC(=O)O)C(=O)N[C@@H](CCCNC(=N)N)C(=O)N[C@@H](CCC(=O)O)C(=O)N[C@@H](CCC(N)=O)C(=O)N[C@@H](C)C(=O)N[C@@H](CCC(=O)O)C(=O)N[C@H](C(=O)N[C@@H](CC(N)=O)C(=O)N[C@@H](CCCCN)C(=O)N[C@@H](CCC(N)=O)C(=O)N[C@H](C(=O)N[C@@H](CC(C)C)C(=O)N[C@@H](C)C(=O)N[C@@H](CCC(N)=O)C(=O)N[C@H](C(N)=O)C(C)C)[C@@H](C)CC)[C@@H](C)O)[C@@H](C)CC)C(C)C)C(C)C [compound 95] (H-IVLSLDVPIKLK([AEEA-AEEA-γGlu-C18 diacid])QKLLKQERQKKEREQAETNKQILAQV-NH2; N-terminus assumed)
1.66	CC[C@H](C)[C@H](N)C(=O)N[C@H](C(=O)N[C@@H](CC(C)C)C(=O)N[C@@H](CO)C(=O)N[C@@H](CC(C)C)C(=O)N[C@@H](CC(=O)O)C(=O)N[C@H](C(=O)N1CCC[C@H]1C(=O)N[C@H](C(=O)N[C@@H](CCCCN)C(=O)N[C@@H](CC(C)C)C(=O)N[C@@H](CCCCNC(=O)COCCOCCNC(=O)COCCOCCNC(=O)CC[C@H](NC(=O)CCCCCCCCCCCCCCCCC(=O)O)C(=O)O)C(=O)N[C@@H](CCC(N)=O)C(=O)N[C@@H](CCCCN)C(=O)N[C@@H](CC(C)C)C(=O)N[C@@H](CC(C)C)C(=O)N[C@@H](CCCCN)C(=O)N[C@@H](CCC(N)=O)C(=O)N[C@@H](CCC(=O)O)C(=O)N[C@@H](CCCNC(=N)N)C(=O)N[C@@H](CCC(N)=O)C(=O)N[C@@H](CCCCN)C(=O)N[C@@H](CCCCN)C(=O)N[C@@H](CCC(N)=O)C(=O)N[C@@H](CCCNC(=N)N)C(=O)N[C@@H](CCC(=O)O)C(=O)N[C@@H](CCC(N)=O)C(=O)N[C@@H](C)C(=O)N[C@@H](CCC(=O)O)C(=O)N[C@H](C(=O)N[C@@H](CC(N)=O)C(=O)N[C@@H](CCCCN)C(=O)N[C@@H](CCC(N)=O)C(=O)N[C@H](C(=O)N[C@@H](CC(C)C)C(=O)N[C@@H](C)C(=O)N[C@@H](CCC(N)=O)C(=O)N[C@H](C(N)=O)C(C)C)[C@@H](C)CC)[C@@H](C)O)[C@@H](C)CC)C(C)C)C(C)C [compound 97] (H-IVLSLDVPIKLK([AEEA-AEEA-γGlu-C18 diacid])QKLLKQERQKKQREQAETNKQILAQV-NH2)
2.36	CC[C@H](C)[C@H](N)C(=O)N[C@H](C(=O)N[C@@H](CC(C)C)C(=O)N[C@@H](CO)C(=O)N[C@@H](CC(C)C)C(=O)N[C@@H](CC(=O)O)C(=O)N[C@H](C(=O)N1CCC[C@H]1C(=O)N[C@H](C(=O)N[C@@H](CCCCN)C(=O)N[C@@H](CC(C)C)C(=O)N[C@@H](CCCCNC(=O)COCCOCCNC(=O)COCCOCCNC(=O)CC[C@H](NC(=O)CCCCCCCCCCCCCCCCC(=O)O)C(=O)O)C(=O)N[C@@H](CCC(N)=O)C(=O)N[C@@H](CCCCN)C(=O)N[C@@H](CC(C)C)C(=O)N[C@@H](CC(C)C)C(=O)N[C@@H](CCCCN)C(=O)N[C@@H](CCC(N)=O)C(=O)N[C@@H](CCC(=O)O)C(=O)N[C@@H](CCCNC(=N)N)C(=O)N[C@@H](CCC(N)=O)C(=O)N[C@@H](CCCCN)C(=O)N[C@@H](CCCCN)C(=O)NC(C)(C)C(=O)N[C@@H](CCCNC(=N)N)C(=O)N[C@@H](CCC(=O)O)C(=O)N[C@@H](CCC(N)=O)C(=O)N[C@@H](C)C(=O)N[C@@H](CCC(=O)O)C(=O)N[C@H](C(=O)N[C@@H](CC(N)=O)C(=O)N[C@@H](CCCCN)C(=O)N[C@@H](CCC(N)=O)C(=O)N[C@H](C(=O)N[C@@H](CC(C)C)C(=O)N[C@@H](C)C(=O)N[C@@H](CCC(N)=O)C(=O)N[C@H](C(N)=O)C(C)C)[C@@H](C)CC)[C@@H](C)O)[C@@H](C)CC)C(C)C)C(C)C [compound 98] (H-IVLSLDVPIKLK([AEEA-AEEA-γGlu-C18 diacid])QKLLKQERQKK[Aib]REQAETNKQILAQV-NH2; N-terminus assumed)
0.81	CC[C@H](C)[C@H](N)C(=O)N[C@H](C(=O)N[C@@H](CC(C)C)C(=O)N[C@@H](CO)C(=O)N[C@@H](CC(C)C)C(=O)N[C@@H](CC(=O)O)C(=O)N[C@H](C(=O)N1CCC[C@H]1C(=O)N[C@H](C(=O)N[C@@H](CCCCN)C(=O)N[C@@H](CC(C)C)C(=O)N[C@@H](CCCCNC(=O)COCCOCCNC(=O)COCCOCCNC(=O)CC[C@H](NC(=O)CCCCCCCCCCCCCCCCC(=O)O)C(=O)O)C(=O)N[C@@H](CCC(N)=O)C(=O)N[C@H](C(=O)N[C@@H](CC(C)C)C(=O)N[C@@H](CC(C)C)C(=O)N[C@@H](CCCCN)C(=O)N[C@@H](CCC(N)=O)C(=O)N[C@@H](CCC(=O)O)C(=O)N[C@@H](CCCNC(=N)N)C(=O)N[C@@H](CCC(N)=O)C(=O)N[C@@H](CCCCN)C(=O)NC(C)(C)C(=O)N[C@@H](CCC(N)=O)C(=O)N[C@@H](CCCNC(=N)N)C(=O)N[C@@H](CCC(=O)O)C(=O)N[C@@H](CCC(N)=O)C(=O)N[C@@H](C)C(=O)N[C@@H](CCC(=O)O)C(=O)N[C@H](C(=O)N[C@@H](CC(N)=O)C(=O)N[C@@H](CCCCN)C(=O)N[C@@H](CCC(N)=O)C(=O)N[C@H](C(=O)N[C@@H](CC(C)C)C(=O)N[C@@H](CCC(=O)O)C(=O)N[C@@H](CCCNC(=N)N)C(=O)N[C@H](C(N)=O)C(C)C)[C@@H](C)CC)[C@@H](C)O)[C@@H](C)CC)[C@@H](C)CC)C(C)C)C(C)C [compound 107] (H-IVLSLDVPIKLK([AEEA-AEEA-γGlu-C18 diacid])QILLKQERQK[Aib]QREQAETNKQILERV-NH2)
2.77	CC[C@H](C)[C@H](N)C(=O)N[C@H](C(=O)N[C@@H](CC(C)C)C(=O)N[C@@H](CO)C(=O)N[C@@H](CC(C)C)C(=O)N[C@@H](CC(=O)O)C(=O)N[C@H](C(=O)N1CCC[C@H]1C(=O)N[C@H](C(=O)N[C@@H](CCCCN)C(=O)N[C@@H](CC(C)C)C(=O)N[C@@H](CCCCNC(=O)COCCOCCNC(=O)COCCOCCNC(=O)CC[C@H](NC(=O)CCCCCCCCCCCCCCCCC(=O)O)C(=O)O)C(=O)N[C@@H](CCC(N)=O)C(=O)N[C@H](C(=O)N[C@@H](CC(C)C)C(=O)N[C@@H](CC(C)C)C(=O)N[C@@H](CCCCN)C(=O)N[C@@H](CCC(N)=O)C(=O)N[C@@H](CCC(=O)O)C(=O)N[C@@H](CCCNC(=N)N)C(=O)N[C@@H](CCC(N)=O)C(=O)N[C@@H](CCCCN)C(=O)NC(C)(C)C(=O)N[C@@H](CCC(N)=O)C(=O)N[C@@H](CCCNC(=N)N)C(=O)N[C@@H](CCC(=O)O)C(=O)N[C@@H](CCC(N)=O)C(=O)N[C@@H](C)C(=O)N[C@@H](CCC(=O)O)C(=O)N[C@@H](CCCCN)C(=O)N[C@@H](CC(N)=O)C(=O)N[C@@H](CCCCN)C(=O)N[C@@H](CCC(N)=O)C(=O)N[C@H](C(=O)N[C@@H](CC(C)C)C(=O)N[C@@H](CCC(=O)O)C(=O)N[C@@H](CCCNC(=N)N)C(=O)N[C@H](C(N)=O)C(C)C)[C@@H](C)CC)[C@@H](C)CC)[C@@H](C)CC)C(C)C)C(C)C [compound 115] (H-IVLSLDVPIKLK([AEEA-AEEA-γGlu-C18 diacid])QILLKQERQK[Aib]QREQAEKNKQILERV-NH2; N-terminus assumed)

same assay, conditions: cAMP HTRF, TeloHEAC cells stably expressing human CRF2 α, 0.1% HSA; read-out: EC50 [nM], 0.1% HSA

EC50 [nM]	Compound
16.1	CC[C@H](C)[C@H](N)C(=O)N[C@H](C(=O)N[C@@H](CC(C)C)C(=O)N[C@@H](CO)C(=O)N[C@@H](CC(C)C)C(=O)N[C@@H](CC(=O)O)C(=O)N[C@H](C(=O)N1CCC[C@H]1C(=O)N[C@H](C(=O)N[C@@H](CCCCN)C(=O)N[C@@H](CC(C)C)C(=O)N[C@@H](CCCCNC(=O)COCCOCCNC(=O)COCCOCCNC(=O)CC[C@H](NC(=O)CCCCCCCCCCCCCCCCC(=O)O)C(=O)O)C(=O)N[C@@H](CCC(N)=O)C(=O)N[C@H](C(=O)N[C@@H](CC(C)C)C(=O)N[C@@H](CC(C)C)C(=O)N[C@@H](CCCCN)C(=O)N[C@@H](CCC(N)=O)C(=O)N[C@@H](CCC(=O)O)C(=O)N[C@@H](CCCNC(=N)N)C(=O)N[C@@H](CCC(N)=O)C(=O)N[C@@H](CCCCN)C(=O)NC(C)(C)C(=O)N[C@@H](CCC(N)=O)C(=O)N[C@@H](CCCNC(=N)N)C(=O)N[C@@H](CCC(=O)O)C(=O)N[C@@H](CCC(N)=O)C(=O)N[C@@H](C)C(=O)N[C@@H](CCC(=O)O)C(=O)N[C@H](C(=O)N[C@@H](CC(N)=O)C(=O)N[C@@H](CCCCN)C(=O)N[C@@H](CCC(N)=O)C(=O)N[C@H](C(=O)N[C@@H](CC(C)C)C(=O)N[C@@H](CCC(=O)O)C(=O)N[C@@H](CCCNC(=N)N)C(=O)N[C@H](C(N)=O)C(C)C)[C@@H](C)CC)[C@@H](C)O)[C@@H](C)CC)[C@@H](C)CC)C(C)C)C(C)C [compound 107] (H-IVLSLDVPIKLK([AEEA-AEEA-γGlu-C18 diacid])QILLKQERQK[Aib]QREQAETNKQILERV-NH2)
